“And” between values parts separate entries of the source, which are not always exact repeats. Equal values may be shown once.
What was measured:
[1] = tested on: locally advanced or metastatic neuroendocrine tumors (NETs); experiment: Retrospective single arm chart review (TELEACE): tumor progression, PFS, tumor size; assay type: in vivo, human; design: patients with progression-free survival (without tumor progression or death) (%) / Progression-free survival: Patients without outcome (%): concentration or dose not given beside the values; conditions: for Difference in tumor size between pre and post-TE initiation, Estimate: longitudinal generalized linear regression (GEE), 95% CI (−16.1%, −0.2%), P=0.045, negative = decrease; for patients with progression-free survival (without tumor progression or death) (%) / patients without tumor progression (%): overall population
Excerpt: This example provides a retrospective, single arm study of patients with locally advanced or metastatic neuroendocrine tumors (NETs) and documented carcinoid syndrome (CS). The patients received telotristat ethyl for at least 6 months. […] This example reports progression-free survival (PFS), time to tumor progression, changes in carcinoid syndrome (CS) symptoms, and indictors of overall health.
Patients with poorly differentiated neuroendocrine tumors, mixed tumor types or conflicting clinical trial enrollment were excluded. Descriptive statistics, Kaplan-Meier and Chi-square tests were used to evaluate PFS, tumor progression, changes in CS symptoms, body weight and Eastern Cooperative Oncology Group (ECOG) performance status before and after telotristat ethyl initiation. Subgroup analyses were conducted in patients with the same pre- and post-telotristat ethyl background treatment.
Adults with unresectable locally advanced or metastatic neuroendocrine tumors and evidence of carcinoid syndrome documented in their medical chart were eligible for inclusion if they had received telotristat ethyl for at least 6 months and had any additional carcinoid syndrome and neuroendocrine tumor treatment information available for at least six months after telotristat ethyl initiation or until death. The presence of carcinoid syndrome was based on the participating physician's assessment of information contained in the medical charts. Participating physicians were recruited by a professional recruiting organization (Dynata, Plano, Tex., USA) and had to have treated at least one eligible patient with telotristat ethyl in the past 12 months in order to participate. Eligible records had to have documented tumor size and tumor response assessments before and after telotristat ethyl initiation, including at least two radiological scans in the 12 months before telotristat ethyl and at least one scan after telotristat ethyl initiation. Patients with a histologically poorly differentiated neuroendocrine tumor based on grade (G3) or Ki67 index >20%, mixed tumor types according to physician notes, or documented enrollment in any clinical trial during the 6 months after telotristat ethyl initiation were excluded.
Time to tumor progression was defined as the time from telotristat ethyl initiation to the first documented tumor progression in the medical chart. […] Progression-free survival (PFS) was defined as the time from telotristat ethyl initiation to tumor progression or death. […] Physician-assessed changes in body weight, Eastern Cooperative Oncology Group (ECOG) Performance Status, and CS symptoms including diarrhea, flushing, abdominal pain, nausea and ascites were abstracted from medical charts before and after telotristat ethyl initiation.
In order to evaluate the effect of telotristat ethyl treatment on secondary clinical outcomes, analyses were conducted in the overall population and in a subgroup of patients who had the same documented non-telotristat ethyl neuroendocrine tumor treatment before and after telotristat ethyl initiation. Descriptive statistics summarized patient demographic and clinical characteristics, and changes in body weight and ECOG Performance Status after telotristat ethyl treatment initiation. Kaplan-Meier analyses estimated median time to tumor progression and median PFS. Chi-square test evaluated changes in documented CS symptoms (improved vs same/worsened) before and after telotristat ethyl initiation. All analyses were performed using SAS version 9.4 (SAS Institute, Cary, N.C., USA).
A radiological scan performed immediately before telotristat ethyl initiation was evaluated. A radiological scan performed post-telotristat ethyl was also examined. Paired t-test was used to calculate P-value for tumor size. Statistical significance (P<0.001) was also confirmed using Wilcoxon signed rank test. […]

[2] = tested on: human intrahepatic CCA cells CCLP-1; experiment: Tumor growth study in CCLP-1 subcutaneous xenografts; assay type: in vivo, NOD/SCID mice
Description: The human intrahepatic CCA cells CCLP-1 were cultured in DMEM containing 10% FBS. Animal survival was studied in a peritoneal dissemination model, and a tumor growth study was performed in subcutaneous xenografts using 4-6 weeks old female NOD/SCID mice by injecting 10×10^6 CCLP-1 cells per mouse. Ten days after tumor cell injection, mice were randomized (n=4-7) to receive PBS (control), gemcitabine (50 mg/kg, 2×wk), cisplatin (2.5 mg/kg, 2×wk survival study, 1×wk tumor growth study), nab-paclitaxel (5 mg/kg, 2×wk) or telotristat ethyl (100 mg/kg, 5×wk), for two weeks. In the survival study, mice were monitored daily and euthanized when moribund, and survival was measured from the first day of treatment until death. In the tumor growth study, tumor size was measured twice per week and tumor volume was measured using the formula V=½ (L×W2, with L=length and W=width). Comparative statistics utilized one-way ANOVA, Student's t-test and logrank methods.

[3] = 6 months after TE initiation, listed as TE
[4] = 12 months after TE initiation, listed as TE
[5] = treatment subgroup n=65, 12 months
[6] = treatment subgroup n=65, 18 months

SMILES: CCOC(=O)[C@@H](N)Cc1ccc(-c2cc(O[C@H](c3ccc(Cl)cc3-n3ccc(C)n3)C(F)(F)F)nc(N)n2)cc1 [telotristat ethyl, (S)-ethyl 2-amino-3-(4-(2-amino-6-((R)-1-(4-chloro-2-(3-methyl-1H-pyrazol-1-yl)phenyl)-2,2,2-trifluoroethoxy)pyrimidin-4-yl)phenyl)propanoate]
- Tumor size (cm) Change from baseline, Mean ± SD ([1]; N=200, P<0.001): −0.5 ± 1.8 cm
- Tumor size (cm) Post-TE initiation, Mean (IQR) ([1]; N=200, pre-TE 3.5 (2.3, 5.0)): 3.0 (2.0, 4.8) cm
- Tumor size (cm) Post-TE initiation, Mean ± SD ([1]; N=200, pre-TE 3.9 ± 2.2): 3.4 ± 2.3 cm
- patients with improved (responded completely or partially) tumor response post-TE initiation ([1]; among 33 patients with worsened (progressed) tumor response pre-TE initiation): 45%
- average (SD) tumor size reduction ([1]; from scan immediately before TE initiation until last scan post-TE, P<0.001): 0.5 (1.8) cm
- Difference in tumor size between pre and post-TE initiation, Estimate [1]: −8.5%
- Difference in tumor size between pre and post-TE initiation, Estimate ([1]; listed as TE): −8.5%
- median progression-free survival ([1]; overall population n=200, Kaplan-Meier, IQR 17.8, 39.8): 23.7 months
- median time to tumor progression ([1]; overall population n=200, Kaplan-Meier, IQR 18.7, 39.8): 39.8 months
- patients with progression-free survival (without tumor progression or death) (%) ([1]; 6 months after TE initiation): 90% and 89.5%
- patients without tumor progression (%) ([1]; 6 months after TE initiation): 92%
- patients with progression-free survival (without tumor progression or death) (%) [1, 3]: 89.5%
- patients without tumor progression (%) [1, 3]: 92.0%
- patients with progression-free survival (without tumor progression or death) (%) ([1]; 12 months after TE initiation): 80% and 79.9%
- patients without tumor progression (%) ([1]; 12 months after TE initiation): 87% and 86.8%
- patients with progression-free survival (without tumor progression or death) (%) [1, 4]: 79.9%
- patients without tumor progression (%) [1, 4]: 86.8%
- patients with progression-free survival (without tumor progression or death) (%) ([1]; 18 months after TE initiation): 72.1%
- patients without tumor progression (%) ([1]; 18 months after TE initiation): 78.3%
- Tumor progression: Patients without outcome (%) ([1]; treatment subgroup n=65 (same background treatment pre/post TE), 6 months): 100.0%
- Progression-free survival: Patients without outcome (%) ([1]; treatment subgroup n=65, 6 months): 96.9%
- Progression-free survival: Patients without outcome (%) [1, 5]: 87.5%
- Tumor progression: Patients without outcome (%) [1, 5]: 90.4%
- Progression-free survival: Patients without outcome (%) [1, 6]: 87.5%
- Tumor progression: Patients without outcome (%) [1, 6]: 90.4%
- tumor weight at the completion of therapy ([2]; controls 0.187 g): 0.091 g
- net tumor growth ([2]; gemcitabine 50 mg/kg 2×wk, cisplatin 2.5 mg/kg 1×wk, nab-paclitaxel 5 mg/kg 2×wk, telotristat ethyl 100 mg/kg 5×wk, two weeks, controls 199 mm^3): 93 mm^3
